The target of the assay is T1, voltage-gated sodium channel Nav1.7 (Homo sapiens, UniProt Q15858).
T1 construct: host or cells: HEK293
In words: Nav1.7 inhibition, membrane potential fluorescence dye assay with veratridine stimulation in Human Nav1.7-HEK293 cells. The assay is classed as cell-based. The conditions noted are these: 30 μM veratridine as stimulant.

pIC50: −log10 of the molar value.

T1 sequence (Q15858 whole entry): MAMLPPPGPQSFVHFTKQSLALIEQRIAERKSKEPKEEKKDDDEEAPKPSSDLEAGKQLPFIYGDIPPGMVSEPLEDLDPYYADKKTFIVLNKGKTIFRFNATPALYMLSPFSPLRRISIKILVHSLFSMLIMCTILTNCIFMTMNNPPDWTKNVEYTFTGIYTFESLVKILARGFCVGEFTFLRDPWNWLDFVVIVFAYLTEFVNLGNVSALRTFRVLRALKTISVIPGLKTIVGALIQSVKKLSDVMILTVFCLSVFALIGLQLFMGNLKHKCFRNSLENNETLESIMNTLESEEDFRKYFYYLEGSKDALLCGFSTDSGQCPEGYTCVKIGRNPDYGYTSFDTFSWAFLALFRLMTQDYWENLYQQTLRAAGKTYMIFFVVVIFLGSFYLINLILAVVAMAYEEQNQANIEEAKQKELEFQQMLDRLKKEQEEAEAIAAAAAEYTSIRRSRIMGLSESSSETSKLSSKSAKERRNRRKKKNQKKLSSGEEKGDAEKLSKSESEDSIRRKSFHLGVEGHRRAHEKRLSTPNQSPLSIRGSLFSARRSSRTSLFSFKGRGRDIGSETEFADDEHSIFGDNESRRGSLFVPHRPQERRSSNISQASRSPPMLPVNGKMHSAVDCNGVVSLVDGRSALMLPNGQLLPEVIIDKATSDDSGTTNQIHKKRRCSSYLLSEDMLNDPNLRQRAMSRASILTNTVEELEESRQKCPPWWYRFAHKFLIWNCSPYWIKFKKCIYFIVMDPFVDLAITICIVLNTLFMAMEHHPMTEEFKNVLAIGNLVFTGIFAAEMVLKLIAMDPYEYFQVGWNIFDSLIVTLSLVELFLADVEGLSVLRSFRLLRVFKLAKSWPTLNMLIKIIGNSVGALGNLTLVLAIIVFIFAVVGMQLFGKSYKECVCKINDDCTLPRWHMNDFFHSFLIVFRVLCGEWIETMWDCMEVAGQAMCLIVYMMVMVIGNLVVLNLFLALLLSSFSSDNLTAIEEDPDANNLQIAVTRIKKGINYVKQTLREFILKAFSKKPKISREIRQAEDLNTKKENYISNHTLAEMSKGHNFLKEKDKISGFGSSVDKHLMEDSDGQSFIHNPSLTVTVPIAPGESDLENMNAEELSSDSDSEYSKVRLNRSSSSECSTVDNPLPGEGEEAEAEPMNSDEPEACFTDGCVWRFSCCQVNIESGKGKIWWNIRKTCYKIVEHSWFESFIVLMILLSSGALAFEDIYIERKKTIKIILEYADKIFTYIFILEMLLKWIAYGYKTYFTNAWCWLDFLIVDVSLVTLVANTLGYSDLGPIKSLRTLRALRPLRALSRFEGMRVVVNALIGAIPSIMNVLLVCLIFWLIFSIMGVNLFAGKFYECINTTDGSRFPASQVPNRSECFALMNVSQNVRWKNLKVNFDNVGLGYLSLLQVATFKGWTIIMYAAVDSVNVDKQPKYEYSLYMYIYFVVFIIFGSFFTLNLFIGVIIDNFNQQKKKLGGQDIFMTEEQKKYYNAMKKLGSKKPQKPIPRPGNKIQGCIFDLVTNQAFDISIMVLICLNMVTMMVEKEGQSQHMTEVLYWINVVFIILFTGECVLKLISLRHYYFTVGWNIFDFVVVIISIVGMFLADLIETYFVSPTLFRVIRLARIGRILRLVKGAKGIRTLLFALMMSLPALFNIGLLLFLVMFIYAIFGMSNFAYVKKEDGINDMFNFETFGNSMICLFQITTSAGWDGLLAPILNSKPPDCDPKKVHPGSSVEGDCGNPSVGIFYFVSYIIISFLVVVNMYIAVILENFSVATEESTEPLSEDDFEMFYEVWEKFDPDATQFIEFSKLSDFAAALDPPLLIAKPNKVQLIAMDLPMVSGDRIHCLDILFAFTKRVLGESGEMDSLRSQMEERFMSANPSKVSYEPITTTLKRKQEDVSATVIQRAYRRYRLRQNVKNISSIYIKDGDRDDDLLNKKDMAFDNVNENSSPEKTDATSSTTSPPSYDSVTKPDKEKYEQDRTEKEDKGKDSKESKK
Protocol: Human Nav1.7-HEK293 cells are HEK293 (human embryonic kidney 293) cells stabilized by transforming the human Nav1.7 gene. One day before experiment, the Human Nav1.7-HEK293 cells were dispensed onto a 96-well plate with 8×10^4 cells/well and cultured in a 5% CO2 incubator at 37° C. for 24 hours. DMEM/F12 containing 10% fetal bovine serum (FBS) was used as a culture medium and geneticin (Gibco®, Thermo Fisher Scientific) was added to stabilize the cells.
24 hours later, after washing the 96-well plate once with a 20 mM HEPES Hanks' balanced salt solution (HBSS) buffer (hereinafter, referred to as a reaction buffer, Invitrogen®, Thermo Fisher Scientific), a membrane potential fluorescence dye (FLIPR®, Molecular Devices) was added to the human Nav1.7-HEK293 cells. […] After reaction for 10 minutes, the change in membrane potential depending on treatment with 30 μM veratridine as a stimulant was measured for each well for 55 seconds using a fluorescence plate reader (FlexStation3, Molecular Device, USA).
The inhibition rate was calculated in the same manner also for lidocaine (Sigma) which is used as a local anesthetic and itch-relieving agent.

Broadly, the pIC50 is −log10 of the IC50, conventionally taken in molar units. High values mean a low IC50, low ones a high IC50. `CCN(CC)CC(=O)Nc1c(C)cccc1C` [Lidocaine, lidocaine]: the pIC50 was 4.54.

The values above are taken from patent US11583512B2, “Composition for relieving itch or irritation of skin, comprising thymol trimethoxycinnamate” (Amorepacific Corporation, priority 2020, dated 2023).
